Experimental data published in US6197536A, “Methodology to produce, and purify and assay polypeptides with the proteolytic activity of the HCV NS3 protease” (priority 1995, dated 2001).
Non-standard residues stand in square brackets, D forms with d. Residues, ends and D or L forms follow the SMILES beside them. No end group written: not given here. *: point of attachment. Dabcyl = CN(C)c1ccc(N=Nc2ccc(C(=O)*)cc2)cc1; EDANS = O=S(=O)(O)c1cccc2c(NCCN*)cccc12; AllylGly = C=CC[C@H](N)C(=O)O; Abu = CC[C@H](N)C(=O)O; Lac = C[C@H](O)C(=O)O

What was measured:
HCV NS3 protease [1] = biological target: T1, HCV NS3 protease (Hepatitis C virus genotype 1b, UniProt P26663); assay: Competitive inhibition of NS3 protease by decapeptides P6-P4' modified at position P1; type: biochemical
T1 construct: The protein fragments contain variants of the protease domain of the HCV NS3 protein; added initiator Met (ATG start codon) (N); made in house
Description: (§1) Cleavage was detected by separating the substrate from the hydrolysis products by reverse-phase HPLC. For this purpose the mixture containing the buffer and the peptide incubated with the protease was injected into a reverse-phase Lichrospher RP-18 column (Merck) and eluted with an acetonitrile gradient containing 0.10% trifluoracetic acid. The cleavage products were identified by co-injection of appropriate standards, and by mass spectrometry. For these experiments, proteins produced by one of the methods described in examples 1 and 2 were used.
(§2) Dependence of the activity on temperature was analysed by means of an Arrhenius plot in which the logarithm of the kinetic constant Kcat is given as an inverse function of temperature.

NS3 protease = biological target: T2, NS3 protease (Hepatitis C virus genotype 1b, UniProt P26663); type: biochemical, hepatitis C virus (HCV)
T2 construct: The protein fragments contain variants of the protease domain of the HCV NS3 protein; added initiator Met (ATG start codon) (N); made in house
Excerpt: Using the HPLC-based assay, the following kinetic parameters were obtained for the radioactive depsipeptide substrate S1 (SEQ ID NO:44):
Synthesis of the radioactive depsipeptide substrates allows set-up of a high-throughput assay for determination of NS3 protease activity as schematically illustrated in FIG. 11. The principle is the following: both the intact substrate and the N-terminal fragment that originates from enzyme cleavage (Ac-Asp-Glu-Met-Glu-Glu-Abu-OH) (SEQ ID NO:49) are extremely acid, whereas the C-terminal fragment [HO-CH(CH3)CO-Ser-His-Leu-Pro-Tyr-Lys(N^ε -[^3 H]-CH3 CO)-NH2 ] (SEQ ID NO:50) is, according to pH, neutral or basic. It is therefore possible to capture the two acidic species on an anionic exchange resin, leaving the C-terminal fragment in solution. If the C-terminal fragment contains a radioactive marker (in this case the tritiated acetate covalently bonded to the ε-amino group of the C-terminal lysine), the resin will be able to discriminate processed substrate from non-processed substrate, thus making it possible to quantify proteolytic activity by measuring the amount of radioactivity remaining in solution after incubation with the enzyme and treatment with the ion exchanger. […]
Purification to >98% homogeneity was achieved through preparative HPLC on a Nucleosyl C-18 column (250×21 mm, 7 μm) using as eluents (A) 50 mM ammonium acetate, pH 6 and (B) acetonitrile. […] The kinetic parameters for this substrate, evaluated through the HPLC-based assay (see FIG. 14A), were the following:
The buffer used for the assay is the following: 33 mM DTT, 50 mM Tris, pH 7, 50% glycerol, 2% CHAPS. […] The assay can be run in a cuvette or in a (96-well) microtitre plate, monitoring the fluorescence as a function of time (Excitation wavelength […], Emission wavelength […]). The increase in fluorescence upon substrate cleavage is 13-fold. […]

HCV protease = biological target: T3, HCV protease (Hepatitis C virus genotype 1b, UniProt P26663); assay: Effect of chymostatin on HCV protease activity; type: biochemical; details: 100 μg/ml used in homogenisation
T3 construct: added initiator Met (ATG start codon) (N); made in house; host or cells: E. coli BL21(DE3)
Description: 1. Homogenisation in the presence of 100 μg/ml of the chymostatin protease inhibitor. […] In this way it was possible to purify a single molecular species with more than 95% of form 2.

[2] = test system: CC(=O)N[C@@H](CC(=O)O)C(=O)N[C@@H](CS)C(=O)N[C@@H](CO)C(=O)N[C@H](C(=O)N1CCC[C@H]1C(=O)N[C@@H](CS)C(=O)N[C@@H](CO)C(=O)NCC(=O)N[C@@H](CO)C(=O)N[C@@H](Cc1c[nH]c2ccccc12)C(=O)O)[C@@H](C)O; assay: HPLC assay of peptide substrate cleavage by purified NS3 protease in the presence of Pep4A; type: biochemical, hepatitis C virus (HCV); details: other: Table 2, stoichiometric concentration, pH 7.5, 25.0 °C
Excerpt: (§3) As mentioned above, the protein NS4A is a cofactor of HCV protease. N and C-terminal deletion experiments have defined the peptide Pep4A with the sequence indicated in SEQ ID NO:6, as the minimum domain still capable of inducing optimal activation. In transfection or in vitro translation experiments the addition of polypeptides containing the minimum NS4A sequence is essential to give effective cleavage. […] The kinetic characteristics of this activation are described below. Using a titration experiment a stoichiometry of 1:1 was determined for this interaction at a concentration of […] of protease, indicating a Kd<300 nM.
(§4) These kinetics were obtained both in the absence and in the presence of stechiometric concentrations of Pep4A. […] When the Km values for the single substrates are compared it becomes evident that the presence of two negative charges in P5 and in P6 determined the bonding effectiveness of a peptide substrate.

[3] = test system: CSCC[C@H](NC(=O)[C@H](CO)NC(=O)[C@H](CS)NC(=O)[C@H](CS)NC(=O)[C@@H](NC(=O)[C@@H](NC(=O)[C@H](CC(=O)O)NC(=O)[C@H](CCC(=O)O)NC(C)=O)C(C)C)C(C)C)C(=O)N[C@@H](CO)C(=O)N[C@@H](Cc1ccc(O)cc1)C(=O)O; assay: as above; type: biochemical, hepatitis C virus (HCV); details: other: Table 2, stoichiometric concentration, pH 7.5, 25.0 °C
Excerpt: as §3, §4

[4] = test system: CSCC[C@H](NC(=O)[C@H](CCC(=O)O)NC(=O)[C@H](CC(=O)O)NC(C)=O)C(=O)N[C@@H](CCC(=O)O)C(=O)N[C@@H](CCC(=O)O)C(=O)N[C@@H](CS)C(=O)N[C@@H](C)C(=O)N[C@@H](CO)C(=O)N[C@@H](Cc1c[nH]cn1)C(=O)N[C@@H](CC(C)C)C(=O)O; assay: as above; type: biochemical, hepatitis C virus (HCV); details: other: Table 2, stoichiometric concentration, pH 7.5, 25.0 °C
Excerpt: as §3, §4

HCV NS3 protease [5] = details: Example 4 amide substrate
Description: as §1, §2

NS3 protease + Pep4A = assay: Automatic assay using a radioactive amide substrate with anionic exchanger capture; type: biochemical, hepatitis C virus (HCV); details: 3 hours at 23° C., 40 μM unlabeled peptide, 200 nM protease, 1 μM Pep4A
Description: 400,000 cpm of the labelled peptide with a specific activity of 2-10 Ci/mmol. were incubated for 3 hours at 23° C. together with 40 μM (Km /2) of unlabeled peptide in the presence of 200 nM protease and 1 μM of Pep4A in 50 mM Tris pH 7.5, 50% glycerol, 3% CHAPS, 10 mM DTT. […] The fraction coming out of the exchanger is filtered, allowed to sediment or spun. The radioactivity is measured on the clear fraction, the amount of which is exclusively related to the right fragment (C-terminal), given that the amide substrate and the left hand fragment remain bound to the anionic exchanger. The addition of inhibitors causes a decrease in the release rate of the labelled cleaved fragment.

[6] = radioactive depsipeptide substrates, HPLC-based assay

T2 sequence (P26663 1027-1208): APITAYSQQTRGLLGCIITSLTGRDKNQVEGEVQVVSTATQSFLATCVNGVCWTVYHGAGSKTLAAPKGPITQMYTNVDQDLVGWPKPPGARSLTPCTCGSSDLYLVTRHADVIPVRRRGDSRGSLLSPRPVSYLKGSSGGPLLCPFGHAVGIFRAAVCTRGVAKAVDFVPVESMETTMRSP
T1 sequence (P26663 1027-1208): as above
Chain of HCV NS3 protease (P26663 1039-1206 limits assumed): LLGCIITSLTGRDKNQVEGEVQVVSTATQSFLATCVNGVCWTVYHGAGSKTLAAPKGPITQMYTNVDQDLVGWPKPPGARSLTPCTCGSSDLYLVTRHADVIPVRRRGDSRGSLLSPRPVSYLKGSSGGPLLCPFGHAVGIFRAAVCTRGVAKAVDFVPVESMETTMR
T3 sequence (P26663 1027-1206): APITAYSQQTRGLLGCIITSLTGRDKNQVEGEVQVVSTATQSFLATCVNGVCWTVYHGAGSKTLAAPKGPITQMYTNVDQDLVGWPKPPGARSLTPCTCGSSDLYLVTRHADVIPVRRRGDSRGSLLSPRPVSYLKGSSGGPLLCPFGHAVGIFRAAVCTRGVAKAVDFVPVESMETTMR
Chain of NS3 protease + Pep4A (P26663 1039-1206, other chains not shown): as the sequence (P26663 1039-1206 limits assumed) above

Molecule: CC[C@H](NC(=O)[C@H](CCC(=O)O)NC(=O)[C@H](CCC(=O)O)NC(=O)[C@H](CCSC)NC(=O)[C@H](CCC(=O)O)NC(=O)[C@H](CC(=O)O)NC(C)=O)C(=O)N[C@@H](C)C(=O)N[C@@H](CO)C(=O)N[C@@H](Cc1c[nH]cn1)C(=O)N[C@@H](CC(C)C)C(=O)O [Abu] (Ac-DEMEE[Abu]ASHL-OH)
- Ki (HCV NS3 protease [1]): 175 µM

Molecule: Ac-DEMEEVASHL [Val]
- Ki (HCV NS3 protease [1]): 173 µM

Molecule: Ac-DEMEETASHL [Thr]
- Ki (HCV NS3 protease [1]): 215 µM

Molecule: Ac-Asp-Glu-Met-Glu-Glu-Abu-.psi.-[COO]-Ala-Ser-His-Leu-Pro-Tyr-Lys(N^ ε -[^3 H]-CH3 CO)-NH2 [SEQ ID NO:44]
- Km (NS3 protease; [6]): 11 µM
- kcat (NS3 protease; [6]): 0.15 s⁻¹

Molecule: C=CC[C@H](NC(=O)[C@H](CCC(=O)O)NC(=O)[C@H](CCC(=O)O)NC(=O)[C@H](CCSC)NC(=O)[C@H](CCC(=O)O)NC(=O)[C@H](CC(=O)O)NC(C)=O)C(=O)N[C@@H](C)C(=O)N[C@@H](CO)C(=O)N[C@@H](Cc1c[nH]cn1)C(=O)N[C@@H](CC(C)C)C(=O)O [Alg] (Ac-DEMEE[AllylGly]ASHL-OH)
- Ki (HCV NS3 protease [1]): 165 µM

Molecule: CC(C)C[C@H](NC(=O)[C@@H](NC(=O)N[C@@H](Cc1ccccc1)C(=O)O)[C@@H]1CCN=C(N)N1)C(=O)N[C@H](C=O)Cc1ccccc1 [chymostatin]
- inhibition of HCV protease activity (HCV protease): does not inhibit

Molecule: HCV NS3 protease + Pep4A (NS4A cofactor peptide) (Hepatitis C virus (isolate BK))
- Km [2]: 320 µM
- Km [3]: 380 µM
- kcat [3]: 0.25 s⁻¹
- kcat/Km [3]: 650 M⁻¹ s⁻¹
- Km [4]: 43 µM
- kcat [4]: 0.0233 s⁻¹
- kcat/Km [4]: 540 M⁻¹ s⁻¹

Molecule: Ac-DEMEEAASHL [Ala]
- Ki (HCV NS3 protease [1]): 173 µM

Molecule: Ac-Asp-Glu-Met-Glu-Glu-Cys-Ala-Ser-His-Leu-Pro-Tyr-Lys-ε-(^3 H)Ac (XEMEECASHLPYX; N-acetyl; tritiated epsilon-acetyl) [SEQ ID NO:47]
- Km (HCV NS3 protease [5]): 79 µM
- kcat (HCV NS3 protease [5]): 0.00817 s⁻¹
- kcat /Km (HCV NS3 protease [5]): 103 M⁻¹ s⁻¹
- peptide substrate cleaved (NS3 protease + Pep4A): 20%

Molecule: CC[C@H](NC(=O)[C@H](CCC(=O)O)NC(=O)[C@H](CCC(=O)O)NC(=O)[C@H](CC(=O)NCCNc1cccc2c(S(=O)(=O)O)cccc12)NC(=O)[C@H](CCC(=O)O)NC(=O)[C@H](CC(=O)O)NC(C)=O)C(=O)O[C@@H](C)C(=O)N[C@@H](CO)C(=O)N[C@@H](CCCCNC(=O)c1ccc(N=Nc2ccc(N(C)C)cc2)cc1)C(N)=O [S3, Ac-Asp-Glu-Asp-(EDANS)-Glu-Glu-Abu-.psi.[COO)-Ala-Ser-Lys-(DABCYL)NH2] (Ac-DED(EDANS)EE[Abu][Lac]SK(Dabcyl)-NH2)
- kcat /Km (NS3 protease; fluorogenic depsipeptide, same buffer): 5342 M⁻¹ s⁻¹
